14 molecules from the supplement of paper PMC10627819 can be followed below.

Holding throughout (test): Bliss interaction score (quartile over a dose matrix) (fitness difference); higher = more antagonism (negative = synergy)
One experiment relates to B. subtilis 168. The method, boiled down: (§1)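 Each plate was normalised to the robust mean of its own no-drug wells, using OD595 at entry into stationary phase, with values capped at 1. This normalised growth is the fitness value. The Bliss score is the difference between observed and product-expected fitness, with single-drug fitness inferred from the combination data and quartiles taken over technical, biological and donor/recipient replicates.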

For the next experiment, the system named is S. aureus DSM 20231. In outline:
as §1

For another experiment, the system named is S. pneumoniae D39V. In outline: as §1
Another experiment concerns S. aureus Newman. In outline: as §1
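Note: first quartile when negative (synergy) and third quartile when positive (antagonism).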

In the case of `CN(C)[C@@H]1C(O)=C(C(N)=O)C(=O)[C@@]2(O)C(O)=C3C(=O)c4c(O)ccc(Cl)c4[C@@](C)(O)[C@H]3C[C@@H]12` [Clortetracycline] + CO[C@@]12[C@H](COC(N)=O)C3=C(C(=O)C(C)=C(N)C3=O)N1C[C@@H]1N[C@@H]12 [MitomycinC], the Bliss interaction score in the experiment on B. subtilis 168 was 0.0447; in the experiment on S. aureus DSM 20231 it was -0.0551; in the experiment with S. pneumoniae D39V it was -0.0402; in the experiment with S. aureus Newman, 0.104.
The corresponding values for `CN(C)[C@@H]1C(O)=C(C(N)=O)C(=O)[C@@]2(O)C(O)=C3C(=O)c4c(O)ccc(Cl)c4[C@@](C)(O)[C@H]3C[C@@H]12` [Clortetracycline] + CO[C@H]1/C=C/O[C@@]2(C)Oc3c(C)c(O)c4c(O)c(c(/C=N/N5CCN(C)CC5)c(O)c4c3C2=O)NC(=O)/C(C)=C\C=C\[C@H](C)[C@H](O)[C@@H](C)[C@@H](O)[C@@H](C)[C@H](OC(C)=O)[C@@H]1C [Rifampicin] are -0.26, -0.0529, 0.0664 and 0.0541.
The corresponding values for `CN(C)[C@@H]1C(O)=C(C(N)=O)C(=O)[C@@]2(O)C(O)=C3C(=O)c4c(O)ccc(Cl)c4[C@@](C)(O)[C@H]3C[C@@H]12` [Clortetracycline] + COc1c(N2C[C@@H]3CCCN[C@@H]3C2)c(F)cc2c(=O)c(C(=O)O)cn(C3CC3)c12 [Moxifloxacin] are -0.0182, 0.119, 0.0374 and 0.101.
As to `CN(C)[C@@H]1C(O)=C(C(N)=O)C(=O)[C@@]2(O)C(O)=C3C(=O)c4c(O)ccc(Cl)c4[C@@](C)(O)[C@H]3C[C@@H]12` [Clortetracycline] + COc1cc(Cc2cnc(N)nc2N)cc(OC)c1OC [Trimethoprim], the Bliss interaction score with B. subtilis 168 was 0.135; with S. aureus DSM 20231, 0.0736; in the experiment with S. pneumoniae D39V, -0.0376; with S. aureus Newman, 0.102.
The like results for `CN(C)[C@@H]1C(O)=C(C(N)=O)C(=O)[C@@]2(O)C(O)=C3C(=O)c4c(O)ccc(Cl)c4[C@@](C)(O)[C@H]3C[C@@H]12` [Clortetracycline] + COc1ccc(C[C@H](N)C(=O)N[C@H]2[C@@H](O)[C@H](n3cnc4c(N(C)C)ncnc43)O[C@@H]2CO)cc1 [Puromycin] were, in that order, -0.0605, -0.0681, -0.0852 and -0.0798.
The corresponding values for `CN(C)[C@@H]1C(O)=C(C(N)=O)C(=O)[C@@]2(O)C(O)=C3C(=O)c4c(O)ccc(Cl)c4[C@@](C)(O)[C@H]3C[C@@H]12` [Clortetracycline] + COc1cccc2c1C(=O)c1c(O)c3c(c(O)c1C2=O)C[C@@](O)(C(=O)CO)C[C@@H]3O[C@H]1C[C@H](N)[C@H](O)[C@H](C)O1 [Doxorubicin] are 0.0883, 0.0615, -0.182 and -0.0472.
The like results for `CN(C)[C@@H]1C(O)=C(C(N)=O)C(=O)[C@@]2(O)C(O)=C3C(=O)c4c(O)ccc(Cl)c4[C@@](C)(O)[C@H]3C[C@@H]12` [Clortetracycline] + C[C@@H]1O[C@@H]1P(=O)(O)O [Fosfomycin] were, in that order, 0.0913, -0.158, 0.0517 and -0.161.
As to `CN(C)[C@@H]1C(O)=C(C(N)=O)C(=O)[C@@]2(O)C(O)=C3C(=O)c4c(O)ccc(Cl)c4[C@@](C)(O)[C@H]3C[C@@H]12` [Clortetracycline] + C[C@@H](O)[C@H]1C(=O)N2C(C(=O)O)=C(SCCNC=N)C[C@H]12 [Imipenem], the Bliss interaction score with B. subtilis 168 was 0.194; with S. aureus DSM 20231, 0.039; in the experiment on S. pneumoniae D39V it was -0.0487; with S. aureus Newman it was 0.0268.
Regarding `CN(C)[C@@H]1C(O)=C(C(N)=O)C(=O)[C@@]2(O)C(O)=C3C(=O)c4c(O)ccc(Cl)c4[C@@](C)(O)[C@H]3C[C@@H]12` [Clortetracycline] + C[C@H]1COc2c(N3CCN(C)CC3)c(F)cc3c(=O)c(C(=O)O)cn1c23 [Levofloxacin], the Bliss interaction score in the experiment with B. subtilis 168 turned out to be 0.035; with S. aureus DSM 20231, 0.115; with S. pneumoniae D39V, 0.0525; in the experiment on S. aureus Newman, 0.0876.
The corresponding values for `CN(C)[C@@H]1C(O)=C(C(N)=O)C(=O)[C@@]2(O)C(O)=C3C(=O)c4c(O)ccc(Cl)c4[C@@](C)(O)[C@H]3C[C@@H]12` [Clortetracycline] + C[C@H]1c2cccc(O)c2C(=O)C2=C(O)[C@]3(O)C(=O)C(C(N)=O)=C(O)[C@@H](N(C)C)[C@@H]3[C@@H](O)[C@@H]21 [Doxycycline] are -0.0687, -0.0625, -0.0483 and -0.0257.
The corresponding values for `CN(C)[C@@H]1C(O)=C(C(N)=O)C(=O)[C@@]2(O)C(O)=C3C(=O)c4c(O)ccc(Cl)c4[C@@](C)(O)[C@H]3C[C@@H]12` [Clortetracycline] + C[n+]1ccc(-c2cc[n+](C)cc2)cc1 [Paraquat] are 0.0974, 0.0363, -0.026 and -0.0418.
The like results for `CN(C)[C@@H]1C(O)=C(C(N)=O)C(=O)[C@@]2(O)C(O)=C3C(=O)c4c(O)ccc(Cl)c4[C@@](C)(O)[C@H]3C[C@@H]12` [Clortetracycline] + Cc1cc(NS(=O)(=O)c2ccc(N)cc2)no1 [Sulfamethoxazol] were, in that order, 0.0702, -0.058, -0.0455 and 0.0566.
Turning to `CN(C)[C@@H]1C(O)=C(C(N)=O)C(=O)[C@@]2(O)C(O)=C3C(=O)c4c(O)ccc(Cl)c4[C@@](C)(O)[C@H]3C[C@@H]12` [Clortetracycline] + Cc1ncc([N+](=O)[O-])n1CCO [Metronidazole], the Bliss interaction score with B. subtilis 168 worked out at 0.141; in the experiment on S. aureus DSM 20231, 0.0551; with S. pneumoniae D39V, 0.104; in the experiment with S. aureus Newman it was 0.0714.
The like results for `CN(C)[C@@H]1C(O)=C(C(N)=O)C(=O)[C@@]2(O)C(O)=C3C(=O)c4c(O)ccc(Cl)c4[C@@](C)(O)[C@H]3C[C@@H]12` [Clortetracycline] + Cc1onc(-c2ccccc2)c1C(=O)N[C@@H]1C(=O)N2[C@@H]1SC(C)(C)[C@@H]2C(=O)O [Oxacillin] were, in that order, 0.0896, 0.0471, 0.125 and 0.0386.
